Where two headings read alike, the source gives them in different places.
Legend:
[1] = target: NAMPT (Homo sapiens (Human), UniProt P43490); experiment: Assay 1: Biochemical Inhibition Assay (NAMPT enzymatic reaction, NMN quantified by mass spectrometry); conditions: read-out: Biochemical (IC50);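 further: recombinant His-tagged human NAMPT preincubated with compound 15 min, then reacted 30 min at rt with 1 µM NAM, 100 µM PRPP, 2.5 mM ATP, NMN product read by RapidFire MS, normalized to L-Cystathionine internal standard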
NAMPT, sequence (P43490 whole entry): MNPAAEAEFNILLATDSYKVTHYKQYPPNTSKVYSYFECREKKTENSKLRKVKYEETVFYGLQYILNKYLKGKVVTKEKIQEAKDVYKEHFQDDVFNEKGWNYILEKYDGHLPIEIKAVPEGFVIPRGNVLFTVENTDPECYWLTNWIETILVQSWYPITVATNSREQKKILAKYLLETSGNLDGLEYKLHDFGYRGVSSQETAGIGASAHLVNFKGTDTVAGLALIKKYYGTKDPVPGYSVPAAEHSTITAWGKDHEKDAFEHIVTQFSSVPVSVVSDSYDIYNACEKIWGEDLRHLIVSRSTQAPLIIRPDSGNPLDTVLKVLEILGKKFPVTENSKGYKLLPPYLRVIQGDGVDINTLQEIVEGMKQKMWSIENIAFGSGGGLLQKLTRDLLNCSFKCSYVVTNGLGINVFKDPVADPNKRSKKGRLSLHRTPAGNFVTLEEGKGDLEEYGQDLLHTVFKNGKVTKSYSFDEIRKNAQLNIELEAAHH

[2] = tested on: A2780 cells; experiment: Assay 2: In-Vitro Cell Proliferation Assay (A2780 cells, SRB readout, 72 hours); assay type: cell-based; conditions: A2780 cells, 72 hours, SRB, read-out: Cell Proliferation (IC50);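 further: viable cells counted via sulforhodamine B staining, absorbance at 570 nm, after 72 h exposure at 37 °C, DMSO 0.1% as control, media-only background subtracted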

“tert-butyl 2-[4-[(imidazo[1,2- a]pyridine-6- carbonylamino)methyl]phenyl] sulfonyl-2,9- diazaspiro[4.5]decane-9- carboxylate [Example 242]” gave an IC50 [1] of 6.34 nM and an IC50 [2] of 2.99 nM.

For `O=C(NCc1ccc(S(=O)(=O)C2CCN(CC(F)(F)F)CC2)cc1)c1cc2cnccc2[nH]1` [Example 211, N-[[4-[[1-(2,2,2-trifluoroethyl)-4-piperidyl]sulfonyl]phenyl]methyl]-1H-pyrrolo[3,2-c]pyridine-2-carboxamide], the IC50 [1] was 15.4 nM and the IC50 ([2]; Homo sapiens, A2780, 72 h) was 3.23 nM.

In the case of `O=C(NCc1ccc(S(=O)(=O)N2CC3(C2)CC(F)(F)C3)cc1)c1ccc2nccn2c1` [Example 270, N-[[4-[(6,6-difluoro-2-azaspiro[3.3]heptan-2-yl)sulfonyl]phenyl]methyl] imidazo[1,2-a]pyridine-6-carboxamide], the IC50 [1] is reported as 8.77 nM and the IC50 ([2]; Homo sapiens, A2780, 72 h) is reported as 6.07 nM.

Compound `NC1CC2(CCN(S(=O)(=O)c3ccc(CNC(=O)c4ccc5nccn5c4)cc3)CC2)C1` [Example 323, N-[[4-[(2-amino-7-azaspiro[3.5]nonan-7-yl)sulfonyl]phenyl]methyl] imidazo[1,2-a]pyridine-6-carboxamide] has an IC50 [1] of 17.7 nM and an IC50 ([2]; Homo sapiens, A2780, 72 h) of 13.3 nM.

Work on `CC(C)(C)OC(=O)N[C@@]12C[C@@H]1CN(S(=O)(=O)c1ccc(CNC(=O)c3ccc4nccn4c3)cc1)C2` (racemic) [Example 132, cis-[3-(4-{[(Imidazo[1,2-a]pyridine-6-carbonyl)-amino]-methyl}-benzenesulfonyl)-3-aza-bicyclo[3.1.0]hex-1-yl]-carbamic acid tert-butyl ester] yielded an IC50 [1] of 19.4 nM and an IC50 ([2]; Homo sapiens, A2780, 72 h) of 3.22 nM.

Compound `O=C(NCc1ccc(S(=O)(=O)N2CCOC3(CCOC3)C2)cc1)c1ccc2nccn2c1` (racemic) [Example 167, Imidazo[1,2-a]pyridine-6-carboxylic acid 4-(2,6-dioxa-9-aza-spiro[4.5]decane-9-sulfonyl)-benzylamide] has an IC50 [1] of 23.7 nM and an IC50 ([2]; Homo sapiens, A2780, 72 h) of 8.8 nM.

For `CC(C)CN1CCC([S+]([O-])c2ccc(CNC(=O)c3ccc4nccn4c3)cc2)CC1` (racemic) [Example 187, N-(4-(1-isobutylpiperidin-4-ylsulfinyl)benzyl)H-imidazo[1,2-a]pyridine-6-carboxamide], the IC50 [1] was 14.2 nM and the IC50 ([2]; Homo sapiens, A2780, 72 h) was 5.8 nM.

`CCCN1CCC([S+]([O-])c2ccc(CNC(=O)c3cnc4[nH]ncc4c3)cc2)CC1` (stereo not drawn) [Example 378, N-[[4-[(1-propyl-4-piperidyl)sulfinyl]phenyl]methyl)-1H-pyrazolo[3,4-b]pyridine-5-carboxamide] was tested, and the IC50 [1] was 594 nM and the IC50 ([2]; Homo sapiens, A2780, 72 h) was 143 nM.

In the case of `CN1CCN(C(=O)C2CN(S(=O)(=O)c3ccc(CNC(=O)c4ccc5nccn5c4)cc3)C2)CC1` [Example 246, N-[[4-[3-(4-methylpiperazine-1-carbonyl)azetidin-1-yl]sulfonylphenyl]methyl] imidazo[1,2-a]pyridine-6-carboxamide], the IC50 [1] is reported as 7.03 nM and the IC50 ([2]; Homo sapiens, A2780, 72 h) is reported as 27.3 nM.

With `CC(C)CN1CCC([S+]([O-])c2ccc(CNC(=O)c3cnc4nccn4c3)cc2)CC1` (racemic) [Example 179, Imidazo[1,2-a]pyrimidine-6-carboxylic acid 4-(1-isobutyl-piperidine-4-sulfinyl)-benzylamide] the IC50 [1] was 7.6 nM and the IC50 ([2]; Homo sapiens, A2780, 72 h) was 31.1 nM.

`O=C(NCc1ccc(S(=O)(=O)[C@@H]2CCOC2)cc1)c1cnc2[nH]ncc2c1` [Example 90, 1H-Pyrazolo[3,4-b]pyridine-5-carboxylic acid 4-[(R)-(tetrahydro-furan-3-yl)sulfonyl]-benzylamide] was tested, and the IC50 [1] was 227 nM and the IC50 [2] was 1800 nM.

`CC(=O)N1CCC(S(=O)(=O)c2ccc(CNC(=O)c3cnc4[nH]ncc4c3)cc2)CC1` [Example 228, N-[[4-(1-Acetylpiperidine-4-sulfonyl)phenyl]methyl]-1H-pyrazolo[3,4-b]pyridine-5-carboxamide] was tested, and the IC50 [1] was 207 nM and the IC50 ([2]; Homo sapiens, A2780, 72 h) was 151 nM.

Work on `CC(C)C(=O)N1CCC(S(=O)(=O)c2ccc(CNC(=O)c3cc4ccncc4o3)cc2)CC1` [Example 313, N-[[4-[[1-(2-methylpropanoyl)-4-piperidyl]sulfonyl]phenyl]methyl]furo[2,3-c]pyridine-2-carboxamide] yielded an IC50 [1] of 35 nM and an IC50 ([2]; Homo sapiens, A2780, 72 h) of 53.8 nM.

`O=C(NCc1ccc(S(=O)(=O)N2CCC[C@H]2CO)cc1)c1ccc2nccn2c1` [Example 107, Imidazo[1,2-a]pyridine-6-carboxylic acid 4-((S)-2-hydroxymethyl-pyrrolidine-1-sulfonyl)-benzylamide] was tested, and the IC50 [1] was 23.7 nM and the IC50 ([2]; Homo sapiens, A2780, 72 h) was 15.4 nM.

`O=C(NCc1ccc(S(=O)(=O)N2CC3(CCOCC3)C2)cc1)c1cc2ccncc2o1` [Example 263, N-[[4-(7-oxa-2-azaspiro[3.5]nonan-2-ylsulfonyl)phenyl]methyl]furo [2,3-c]pyridine-2-carboxamide] was tested, and the IC50 [1] was 18.2 nM and the IC50 ([2]; Homo sapiens, A2780, 72 h) was 23.4 nM.

With `O=C(NCc1ccc(S(=O)(=O)C2CCCOC2)cc1)c1cnc2[nH]ncc2c1` (stereo not drawn) [Example 267, N-[(4-tetrahydropyran-3-ylsulfonylphenyl)methyl]-1H-pyrazolo[3,4-b]pyridine-5-carboxamide] the IC50 [1] was 219 nM and the IC50 ([2]; Homo sapiens, A2780, 72 h) was 176 nM.

Compound `CC(C)(C)OC(=O)N1CC[C@@H]2CN(S(=O)(=O)c3ccc(CNC(=O)c4ccc5nccn5c4)cc3)C[C@@H]21` (racemic) [Example 136, cis-5-(4-{[(Imidazo[1,2-a]pyridine-6-carbonyl)-amino]-methyl}-benzenesulfonyl)-hexahydropyrrolo[3,4-b]pyrrole-1-carboxylic acid tert-butyl ester] has an IC50 [1] of 43.7 nM and an IC50 ([2]; Homo sapiens, A2780, 72 h) of 39.1 nM.

Compound `CCCN1CCC([S+]([O-])c2ccc(CNC(=O)c3ccc4nccn4c3)cc2)CC1` (stereo not drawn) [Example 375, N-[[4-[(1-propyl-4-piperidyl)sulfinyl]phenyl]methyl)imidazo[1,2-a]pyridine-6-carboxamide] has an IC50 [1] of 27.5 nM and an IC50 ([2]; Homo sapiens, A2780, 72 h) of 24.5 nM.

`CC(C)(C)OC(=O)N1CCCC12CCCN(S(=O)(=O)c1ccc(CNC(=O)c3ccc4nccn4c3)cc1)CC2` (racemic) [Example 183] showed an IC50 [1] of 8.99 nM and an IC50 ([2]; Homo sapiens, A2780, 72 h) of 0.76 nM.

Work on “Imidazo[1,2-a]pyridine-6- carboxylic acid 4-[4- (tetrahydro-pyran-4-yl)- piperazine-1-sulfonyl]- benzylamide [Example 59]” yielded an IC50 [1] of 10.7 nM and an IC50 [2] of 3 nM.

Compound `O=C(NCc1ccc(S(=O)(=O)N2CCCC3(CCCCN3)C2)cc1)c1ccc2nccn2c1` (stereo not drawn) [Example 326, N-[[4-(1,8-diazaspiro[5.5]undecan-8-ylsulfonyl)phenyl]methyl] imidazo[1,2-a]pyridine-6-carboxamide] has an IC50 [1] of 107 nM and an IC50 [2] of 60.1 nM.

For `O=C(NCc1ccc(S(=O)(=O)N2CCC[C@H](O)C2)cc1)c1ccc2nccn2c1` [Example 54, Imidazo[1,2-a]pyridine-6-carboxylic acid 4-((S)-3-hydroxy-piperidine-1-sulfonyl)-benzylamide], the IC50 [1] was 15.6 nM and the IC50 ([2]; Homo sapiens, A2780, 72 h) was 11.4 nM.

`O=C(NCc1ccc(S(=O)(=O)N2CCN(C3COC3)CC2)cc1)c1ccc2nccn2c1` [Example 92, Imidazo[1,2-a]pyridine-6-carboxylic acid 4-(4-oxetan-3-yl-piperazine-1-sulfonyl)-benzylamide] showed an IC50 [1] of 29.4 nM and an IC50 ([2]; Homo sapiens, A2780, 72 h) of 7.5 nM.

`O=C(NCc1ccc(S(=O)(=O)N2CCC(N3CCCC3)CC2)cc1)c1ccc2nccn2c1` [Example 97, Imidazo[1,2-a]pyridine-6-carboxylic acid 4-(4-pyrrolidin-1-yl-piperidine-1-sulfonyl)-benzylamide] gave an IC50 [1] of 14.4 nM and an IC50 ([2]; Homo sapiens, A2780, 72 h) of 5.4 nM.

`O=C(NCc1ccc(S(=O)(=O)N2CCC(O)CC2)cc1)c1cnc2nccn2c1` [Example 29, Imidazo[1,2-a]pyrimidine-6-carboxylic acid 4-(4-hydroxy-piperidine-1-sulfonyl)-benzylamide] gave an IC50 [1] of 7.5 nM and an IC50 ([2]; Homo sapiens, A2780, 72 h) of 545 nM.

`N#CC1CCN(S(=O)(=O)c2ccc(CNC(=O)c3cc4ccncc4o3)cc2)CC1` [Example 12, Furo[2,3-c]pyridine-2-carboxylic acid 4-(4-cyano-piperidine-1-sulfonyl)-benzylamide] was tested, and the IC50 [1] was 26.2 nM and the IC50 ([2]; Homo sapiens, A2780, 72 h) was 186 nM.

`O=C(NCc1ccc(S(=O)(=O)N2CCC(O)CC2)cc1)c1cc2ccncc2o1` [Example 38, Furo[2,3-c]pyridine-2-carboxylic acid 4-(4-hydroxy-piperidine-1-sulfonyl)-benzylamide] gave an IC50 [1] of 26.5 nM and an IC50 ([2]; Homo sapiens, A2780, 72 h) of 62.1 nM.

With `CC(C)(C)OC(=O)N1CCC2(CCCN2S(=O)(=O)c2ccc(CNC(=O)c3ccc4nccn4c3)cc2)CC1` [Example 185, 1-(4-{[(Imidazo[1,2-a]pyridine-6-carbonyl)-amino]-methyl}-benzenesulfonyl)-1,8-diaza-spiro[4.5]decane-8-carboxylic acid tert-butyl ester] the IC50 [1] was 283 nM and the IC50 ([2]; Homo sapiens, A2780, 72 h) was 118 nM.

Compound `CC(C)N1CCC([S+]([O-])c2ccc(CNC(=O)c3cc4cnccc4[nH]3)cc2)CC1` (stereo not drawn) [Example 386, N-[[4-[(1-isopropyl-4-piperidyl)sulfinyl]phenyl]methyl]-1H-pyrrolo[3,2-c]pyridine-2-carboxamide] has an IC50 [1] of 60 nM and an IC50 ([2]; Homo sapiens, A2780, 72 h) of 70.6 nM.

In the case of `O=C(NCc1ccc(S(=O)(=O)N2CC3CC(F)(F)CC3C2)cc1)c1cc2ccncc2o1` (stereo not drawn) [Example 297, N-[[4-[(5,5-difluoro-1,3,3a,4,6,6a-hexahydrocyclopenta[c]pyrrol-2-yl)sulfonyl]phenyl]methyl]furo [2,3-c]pyridine-2-carboxamide], the IC50 [1] is reported as 16.6 nM and the IC50 ([2]; Homo sapiens, A2780, 72 h) is reported as 51.2 nM.

`CN1CC2CCN(S(=O)(=O)c3ccc(CNC(=O)c4ccc5nccn5c4)cc3)C2C1` (racemic) [Example 143, cis-Imidazo[1,2-a]pyridine-6-carboxylic acid 4-(5-methyl-hexahydro-pyrrolo[3,4-b]pyrrole-1-sulfonyl)-benzylamide] was tested, and the IC50 [1] was 100 nM and the IC50 ([2]; Homo sapiens, A2780, 72 h) was 20.4 nM.

`O=C(NCc1ccc(S(=O)(=O)N2CCC(F)(F)CC2)cc1)c1ccc2nccn2c1` [Example 112, Imidazo[1,2-a]pyridine-6-carboxylic acid 4-(4,4-difluoro-piperidine-1-sulfonyl)-benzylamide] gave an IC50 [1] of 25.9 nM and an IC50 ([2]; Homo sapiens, A2780, 72 h) of 20.5 nM.

Compound `O=C(NCc1ccc(S(=O)(=O)N2CC(F)(F)C2)cc1)c1ccc2nccn2c1` [Example 239, N-[[4-(3,3-difluoroazetidin-1-yl)sulfonylphenyl]methyl] imidazo[1,2-a]pyridine-6-carboxamide] has an IC50 [1] of 33.3 nM and an IC50 ([2]; Homo sapiens, A2780, 72 h) of 35.6 nM.

Reference: patent publication US10696692B2, “Amido-benzyl sulfone and sulfoxide derivates” (Forma TM, LLC, priority 2012, dated 2020)
